Measured values from patent US5137900A, “Therapeutic virginiamycin M1 analogs” (Merck & Co., Inc., priority 1991, dated 1992).

How the values were obtained:
Pancreatic CCK receptor = molecular target: T1, Pancreatic CCK receptor (Rattus norvegicus, UniProt P30551); test: Pancreatic cholecystokinin receptor binding assay (125I-CCK-8); settings: rat pancreas membranes, 37° C., 30 minutes
T1 construct: Pancreatic receptor membranes were prepared; from tissue; host or cells: rat pancreas membranes
T1 sequence (P30551 1-444): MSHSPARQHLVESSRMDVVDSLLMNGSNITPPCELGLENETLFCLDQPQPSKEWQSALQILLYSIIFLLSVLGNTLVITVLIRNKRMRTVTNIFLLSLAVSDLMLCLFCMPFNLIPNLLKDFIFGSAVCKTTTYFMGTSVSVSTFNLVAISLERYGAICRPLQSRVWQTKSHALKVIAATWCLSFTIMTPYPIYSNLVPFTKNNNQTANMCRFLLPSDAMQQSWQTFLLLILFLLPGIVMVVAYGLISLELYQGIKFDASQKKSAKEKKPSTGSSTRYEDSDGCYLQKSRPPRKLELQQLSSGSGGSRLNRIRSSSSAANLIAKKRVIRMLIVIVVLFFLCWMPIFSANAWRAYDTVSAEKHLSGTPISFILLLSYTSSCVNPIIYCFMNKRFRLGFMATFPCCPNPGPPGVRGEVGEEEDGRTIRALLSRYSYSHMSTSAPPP
Procedure: Radiolabeled CCK-8 was purchased from New England Nuclear as ^125 I-CCK-8 Receptor binding was performed according to Innis and Snyder Proc. Natl. Acad. Sci., 77, 6917 (1980), with the minor modification of adding the additional protease inhibitors, phenylmethane sulfonyl fluoride (PMSF) and o-phenanthroline, which have no effect on the ^125 I-CCK receptor binding assay. All assays were performed in triplicate. Pancreatic receptor membranes were prepared by homogenzing a gram of fresh rat pancreas tissue in 30 ml TRIS-HCl (50 mM), pH 7.7 using a Brinkman polytron PT10 (Brinkman). The homogenate was washed twice and collected by centrifugation at 48,000×g at 4° C. for 10 minutes. The membranes were resuspended in assay buffer consisting of 5 mM dithiothieitol, 0.1 mM bacitiacin, 5 mM MgCl2.H2 O, 0.2% heat denatured BSA, 1.2 mM PMSF and 0.5 mM O-phenanthroline at a concentration of 100 ml per gram of pancreas. […] The reaction mixtures were mixed briefly and placed in a 37° C. water bath with gentle shaking for 30 minutes. The reaction mixtures were then diluted with 4 ml of ice-cold TRIS buffer, pH 7.7, containing 1 mg/ml bovine serum albumin and immediately filtered in Watman G F/B filters. The filters were washed with 3×4 ml of the same buffer and the radioactivity associated with the filters was counted in a Beckman Gamma 5500 counter. Broths were prepared by adding two volumes of acetone to original broth; supernatants were freeze dried after centrifugation at 1500 g for 10 minutes. The dried samples were then brought up in methanol/H2 O (1:1) and ready for assay.

[1] = cited from earlier work
gastric acid secretion = settings: cited from earlier work

| Compound | IC50 (Pancreatic CCK receptor) [µM] | also measured |
| --- | --- | --- |
| CC1=C\C=C\C(=O)Cc2nc(co2)C(=O)N2CCC=C2C(=O)O[C@H](C(C)C)[C@H](C)/C=C/C(=O)NC\C=C\1 [Compound III] | > 10 |  |
| C-terminal octapeptide: C-terminal octapeptide of CCK |  | efficacy relative to CCK-33 ([1]; compared with CCK-33): same efficacy; potency relative to CCK-33 ([1]; more potent than CCK-33): approximately ten |
| Gastrin-17 |  | potency relative to Gastrin-13 (gastric acid secretion; more potent than Gastrin-13, gastric acid secretion): 2.5 times; potency relative to Gastrin-34 (gastric acid secretion; more potent than Gastrin-34, gastric acid secretion): 5 times |
| CC1=C\[C@@H](O)CC(=O)Cc2nc(co2)C(=O)N2CCC=C2C(=O)O[C@H](C(C)C)[C@H](C)/C=C/C(=O)NC\C=C\1 [Virginiamycin M1] | > 100 |  |

Further lines, with some results ahead:

| IC50 (Pancreatic CCK receptor) [µM] | Compound | also measured |
| --- | --- | --- |
| > 10 | CC1=C\C=C\[C@@H](O)Cc2nc(co2)C(=O)N2CCC=C2C(=O)O[C@H](C(C)C)[C@H](C)/C=C/C(=O)NC\C=C\1 [Compound I] |  |
| > 10 | CC1=C\C=C\[C@H](O)Cc2nc(co2)C(=O)N2CCC=C2C(=O)O[C@H](C(C)C)[C@H](C)/C=C/C(=O)NC\C=C\1 [Compound II] |  |
